Measurements: US20260232827A1, “ANTIBODY-DRUG CONJUGATES TARGETING NAPI2B AND METHODS OF USE” (Zymeworks BC Inc., priority 2023, published 2026)

Legend:
SK-BR-3 (breast cancer) = assay: In vitro cytotoxicity of camptothecin analogues (CellTiter-Glo); assay type: cell-based; settings: Homo sapiens, SK-BR-3, 96 h, read-out: pIC50 SKBR-3 (converted)
Experimental: (§1) Cytotoxicity of the camptothecin analogues was assessed in vitro as follows.
(§2) In vitro potency was assessed on multiple cancer cell lines: SK-BR-3 (breast cancer), SKOV-3 (ovarian cancer), Calu-3 (lung cancer), ZR-75-1 (breast cancer) and MDA-MB-468 (breast cancer). Serial dilutions of camptothecin analogues were prepared in RPMI 1640+10% FBS, and 20 μL of each dilution was added to 384-well plates. Cells cultured in log-phase growth were detached by brief incubation in 0.05% Trypsin and resuspended in respective culturing media at 20,000 cells/mL (with the exception of ZR-75 cells, which were resuspended at 10,000 cells/mL). 50 μL of cell suspension was then added to the plates containing test articles. Cells were incubated with test articles for 4 d at 37° C. (with the exception of ZR-75 cells, which were incubated for 5 d). Growth inhibition was assessed by CellTiter-Glo® (Promega Corporation, Madison, WI) and luminescence was measured on a plate reader. IC50 values were determined by GraphPad Prism (GraphPad Software, San Diego CA).

SKOV-3 (ovarian cancer) = assay: as above; assay type: cell-based; settings: Homo sapiens, SK-OV-3, 96 h, read-out: pIC50 SKOV-3 (converted)
Experimental: as §1, §2

Calu-3 (lung cancer) = assay: as above; assay type: cell-based; settings: Homo sapiens, Calu-3, 96 h, read-out: pIC50 Calu-3 (converted)
Experimental: as §1, §2

[1] = system: MDA-MB-468 (breast cancer); assay: as above; assay type: cell-based; settings: Homo sapiens, MDA-MB-468, 96 h, read-out: pIC50 MDA-MB-468 (converted)
Experimental: as §1, §2

ZR-75-1 (breast cancer) = assay: as above; assay type: cell-based; settings: Homo sapiens, ZR-75-1, 120 h, read-out: pIC50 ZR-75 (converted)
Experimental: as §1, §2

[2] = system: Construct 1 (chimeric human NaPi2b, region 239-259); assay: Binding region mapping, flow cytometry on transfected HEK293-6e cells; settings: 24 hours at 4° C.
From the text: (§3) NaPi2b constructs containing deletions in the main extracellular loop of human NaPi2b, as well as chimeric NaPi2b/NaPi2c constructs concerning this main loop, were generated.
(§4) As a complementary strategy, two additional constructs were designed in which the relevant region of the main loop was deleted such as to mimic NaPi2c/NaPi2a main extracellular loop (Constructs 6-7 in Table 52.1). Clones were generated at GenScript Biotech (Piscataway, NJ).
(§5) Constructs were expressed in HEK293-6e cells as follows. Cells were maintained under standard culture conditions (37° C./5% CO2) with shaking at 110 rpm for suspension and cultured in FreeStyle™ 293 Expression Medium (Thermo Fisher Scientific, Waltham, MA) supplemented with 1% fetal bovine serum (Thermo Fisher Scientific, Waltham, MA) and 1× Penicillin-Streptomycin (Thermo Fisher Scientific, Waltham, MA). Cells were transfected with clones expressing the constructs listed in Table 52.1, at 1 μg of DNA per 1 million cells, using 293Fectin™ Transfection Reagent (Thermo Fisher Scientific, Waltham, MA) and Opti-MEM™ I Reduced Serum Medium (Thermo Fisher Scientific, Waltham, MA), and incubated for 24 hours under standard culture conditions (37° C./5% CO2/110 rpm). Following transfection, cells were seeded at 50,000 cells/well in conical-bottom 96-well plates and treated with a serial dilution of test antibody for 24 hours at 4° C. to prevent internalization. Cells were treated with final concentrations of all humanized antibodies of 200, 20, or 2 nM. Cells were treated with final concentrations of the reference anti-NaPi2a rabbit antibody of 50, 5, or 0.5 nM. […] Following incubation and washing, fluorescence was detected by flow cytometry on a BD LSRFortessa™ Cell Analyzer (BD Biosciences, Franklin Lake, NJ) with 1,000 minimum events collected per well. […] Background-subtracted AF647 Mean Fluorescence Intensity (MFI) values were calculated by subtracting the average MFI of three technical replicates of unstained (no primary antibody) cells.

[3] = system: Construct 2 (chimeric human NaPi2b, region 280-301); assay: as above; settings: 24 hours at 4° C.
From the text: as §3, §4, §5

Molecule | IC50 (SK-BR-3 (breast cancer)) [nM] | IC50 (SKOV-3 (ovarian cancer)) [nM] | IC50 (Calu-3 (lung cancer)) [nM] | IC50 [1] [nM] | IC50 (ZR-75-1 (breast cancer)) [nM] | Background-Subtracted AF647 Mean Fluorescence Intensity ([2]; antibody 2.0 nM) | Background-Subtracted AF647 Mean Fluorescence Intensity ([2]; antibody 20.0 nM) | Background-Subtracted AF647 Mean Fluorescence Intensity ([2]; antibody 200.0 nM) | Background-Subtracted AF647 Mean Fluorescence Intensity ([3]; antibody 20.0 nM) | Background-Subtracted AF647 Mean Fluorescence Intensity ([3]; antibody 200.0 nM)
CC[C@@]1(O)C(=O)OCc2c1cc1n(c2=O)Cc2c-1nc1cc(F)c(N)cc1c2CN=[N+]=[N-] [Compound 152, (S)-9-amino-11-(azidomethyl)-4-ethyl-8-fluoro-4-hydroxy-1,12-dihydro-14H-pyrano[3′,4′:6,7]indolizino[1,2-b]quinoline-3,14(4H)-dione] | 3.24 | 2.88 | 1.48 | 5.01 |  |  |  |  |  | 
CC[C@@]1(O)C(=O)OCc2c1cc1n(c2=O)Cc2c-1nc1cc(F)c(C)cc1c2CN1CCSCC1CO (stereo partly drawn) [Compound 114, (4S)-4-ethyl-8-fluoro-4-hydroxy-11-((3-(hydroxymethyl)thiomorpholino)methyl)-9-methyl-1,12-dihydro-14H-pyrano[3′,4′:6,7]indolizino[1,2-b]quinoline-3,14(4H)-dione] | 0.107 | 0.178 | 0.0933 | 0.417 |  |  |  |  |  | 
CC[C@@]1(O)C(=O)OCc2c1cc1n(c2=O)Cc2c-1nc1cc(F)c(C)cc1c2CNS(N)(=O)=O [Compound 131, (S)-((4-ethyl-8-fluoro-4-hydroxy-9-methyl-3,14-dioxo-3,4,12,14-tetrahydro-1H-pyrano[3′,4′:6,7]indolizino[1,2-b]quinolin-11-yl)methyl)sulfamide] | 1.05 |  | 9.12 | 9.12 | 0.955 |  |  |  |  | 
CC[C@@]1(O)C(=O)OCc2c1cc1n(c2=O)Cc2c-1nc1cc(F)c(C)cc1c2CN1CCO[C@@H](CO)C1 [Compound 113, (S)-4-ethyl-8-fluoro-4-hydroxy-11-(((R)-2-(hydroxymethyl)morpholino)methyl)-9-methyl-1,12-dihydro-14H-pyrano[3′,4′:6,7]indolizino[1,2-b]quinoline-3,14(4H)-dione] | 1.95 | 4.27 | 3.02 | 3.39 | 2.19 |  |  |  |  | 
CC[C@@]1(O)C(=O)OCc2c1cc1n(c2=O)Cc2c-1nc1cc(F)c(C)cc1c2CN1C2CCC1(CO)CC2 [Compound 121] | 0.148 | 0.195 | 0.145 | 0.269 |  |  |  |  |  | 
CC[C@@]1(O)C(=O)OCc2c1cc1n(c2=O)Cc2c-1nc1cc(F)c(C)cc1c2CNS(=O)(=O)c1ccccc1 [Compound 125, (S)-N-((4-ethyl-8-fluoro-4-hydroxy-9-methyl-3,14-dioxo-3,4,12,14-tetrahydro-1H-pyrano[3′,4′:6,7]indolizino[1,2-b]quinolin-11-yl)methyl)benzenesulfonamide] | 1.32 | 7.08 | 2.82 | 3.8 | 1.32 |  |  |  |  | 
CC[C@@]1(O)C(=O)OCc2c1cc1n(c2=O)Cc2c-1nc1cc(F)c(C)cc1c2CN1CCN(c2ccc(N)cc2)CC1 [Compound 108, (S)-11-((4-(4-aminophenyl)piperazin-1-yl)methyl)-4-ethyl-8-fluoro-4-hydroxy-9-methyl-1,12-dihydro-14H-pyrano[3′,4′:6,7]indolizino[1,2-b]quinoline-3,14(4H)-dione] | 29.5 | 55 | 40.7 | 47.9 | 18.6 |  |  |  |  | 
CC[C@@]1(O)C(=O)OCc2c1cc1n(c2=O)Cc2c-1nc1cc(F)c(C)cc1c2CNS(=O)(=O)c1ccc(N)cc1 [Compound 127, (S)-4-amino-N-((4-ethyl-8-fluoro-4-hydroxy-9-methyl-3,14-dioxo-3,4,12,14-tetrahydro-1H-pyrano[3′,4′:6,7]indolizino[1,2-b]quinolin-11-yl)methyl)benzenesulfonamide] | 3.31 | 14.5 | 9.33 | 3.8 | 5.25 |  |  |  |  | 
MX35 [MX35 (v18992)] |  |  |  |  |  | 1,893 | 1,816 | 1,718 | 1,246 | 1,356
CC[C@@]1(O)C(=O)OCc2c1cc1n(c2=O)Cc2c-1nc1cc(F)c(OC)cc1c2CNS(=O)(=O)c1ccc(N)cc1 [Compound 128, (S)-4-amino-N-((4-ethyl-8-fluoro-4-hydroxy-9-methoxy-3,14-dioxo-3,4,12,14-tetrahydro-1H-pyrano[3′,4′:6,7]indolizino[1,2-b]quinolin-11-yl)methyl)benzenesulfonamide] | 5.25 | 18.2 |  | 8.32 | 4.27 |  |  |  |  | 
CC[C@@]1(O)C(=O)OCc2c1cc1n(c2=O)Cc2c-1nc1cc(F)c(OC)cc1c2CNC(=O)NCc1ccc(N)cc1 [Compound 135, (S)-1-(4-aminobenzyl)-3-((4-ethyl-8-fluoro-4-hydroxy-9-methoxy-3,14-dioxo-3,4,12,14-tetrahydro-1/- pyrano[3′,4′:6,7]indolizino[1,2-b]quinolin-11-yl)methyl)urea] | 12.3 |  |  | 10.7 | 13.2 |  |  |  |  | 
CC[C@@]1(O)C(=O)OCc2c1cc1n(c2=O)Cc2c-1nc1cc(F)c(C)cc1c2CNS(C)(=O)=O [Compound 122, (S)-N-((4-ethyl-8-fluoro-4-hydroxy-9-methyl-3,14-dioxo-3,4,12,14-tetrahydro-1H-pyrano[3′,4′:6,7]indolizino[1,2-b]quinolin-11-yl)methyl)methanesulfonamide] | 1.12 | 9.12 | 3.72 | 1.1 | 1.29 |  |  |  |  | 
